Measured values: patent EP0177710A1, “Phenyl urea derivatives” (BAYER AG, priority 1984, dated 1986)

Test system: Unkräutern in Mais
Assay: Post-emergence test / greenhouse
Format: in vivo
Conditions: post-emergence spray, control of weeds in maize, rated after three weeks; compared with comparison substance (A)
Description: Post-emergence-Test/Gewächshaus
Lösungsmittel: 5 Gewichtsteile Aceton
Emulgator: 1 Gewichtsteil Alkylarylpolyglykolether
Zur Herstellung einer zweckmäßigen Wirkstoffzubereitung vermischt man 1 Gewichtsteil Wirkstoff mit der angegebenen Menge Lösungsmittel, gibt die angegebene Menge Emulgator zu und verdünnt das Konzentrat mit Wasser auf die gewünschte Konzentration.
Mit der Wirkstoffzubereitung spritzt man Testpflanzen, welche eine Höhe von 5 - 15 cm haben so, daß die jeweils gewünschten Wirkstoffmengen pro Flächeneinheit ausgebracht werden. Die Konzentration der Spritzbrühe wird so gewählt, daß in 2000 1 Wasser/ha die jeweils gewünschten Wirkstoffmengen ausgebracht werden. Nach drei Wochen wird der Schädigungsgrad der Pflanzen bonitiert in % Schädigung im Vergleich zur Entwicklung der unbehandelten Kontrolle.
Es bedeuten: • O % = keine Wirkung (wie unbehandelte Kontrolle) 100 % = totale Vernichtung

## CC(C)n1cc(Oc2ccc(NC(=O)N(C)C)cc2)cn1 [I-1]
  selektive herbizide Wirksamkeit: bessere selektive herbizide Wirksamkeit
